Measured values: US20040266784A1, “Calcium channel inhibitors comprising benzhydril spaced from piperazine” (priority 1998, published 2004)
Where two headings read alike, the source gives them in different places.

Assays:
[1] = target: T1, rat N-type channels (α1B+α2δ+β1b subunits) (Rattus norvegicus, UniProt Q02294); assay: Whole cell patch clamp, N-type calcium channel block in HEK 293 cells; format: cell-based
T1 construct: expressed in transfected cells
Experimental: Antagonist activity was measured using whole cell patch recordings on human embryonic kidney cells either stably or transiently expressing rat N-type channels (α1B+[…]+β1b subunits) with 5 mM barium as a charge carrier. Alternatively, cells either stably or transiently expressing rat L-type channels (α1C+α2δ+β1b cDNA subunits) and P/Q-type channels (α1A+α2δ+β1b cDNA subunits)
HEK 293 cells were transfected by a standard calcium-phosphate-DNA coprecipitation method using the rat α1B+β1b+α2δ N-type calcium channel subunits in a vertebrate expression vector (for example, see Current Protocols in Molecular Biology).
After an incubation period of from 24 to 72 hrs the culture medium was removed and replaced with external recording solution (see below). Whole cell patch clamp experiments were performed using an Axopatch 200B amplifier (Axon Instruments, Burlingame, Calif.) linked to an IBM compatible personal computer equipped with pCLAMP software. […] Current data shown were elicited by a train of 100 ms test pulses at 0.066 Hz from −100 mV and/or −80 mV to various potentials (min. −20 mV, max. +30 mV). Drugs were perfused directly into the vicinity of the cells using a microperfusion system.
Normalized dose-response curves were fit (Sigmaplot 4.0, SPSS Inc., Chicago, Ill.) by the Hill equation to determine IC50 values. Steady-state inactivation curves were plotted as the normalized test pulse amplitude following 5 s inactivating prepulses at +10 mV increments.
Alternatively, N-type calcium channels (α1B+α2δ+β1b cDNA subunits), L-type channels (α1C+α2δ+β1b cDNA subunits) and P/Q-type channels (α1A+α2δ+β1b cDNA subunits) were transiently expressed in HEK 293 cells. Briefly, cells were cultured in Dulbecco's modified eagle medium (DMEM) supplemented with 10% fetal bovine serum, 200 U/ml penicillin and 0.2 mg/ml streptomycin at 37° C. with 5% CO2. […] At 12 hours the medium was replaced and the cells transiently transfected using a standard calcium phosphate protocol and the appropriate calcium channel cDNAs. Fresh DMEM was supplied and the cells transferred to 28° C./5% CO2.
Whole cell patch clamp experiments were performed using an Axopatch 200B amplifier (Axon Instruments, Burlingame, Calif.) linked to a personal computer equipped with pCLAMP software. […] Currents were typically elicited from a holding potential of −80 mV to +10 mV using Clampex software (Axon Instruments). […] The compounds were then applied during the low frequency pulse trains for two to three minutes to assess tonic block, and subsequently the pulse frequency was increased to 0.2 Hz to assess frequency dependent block. Data were analyzed using Clampfit (Axon Instruments) and SigmaPlot 4.0 (Jandel Scientific).

[2] = target: T2, human α1G subunits (T-type channels) (Homo sapiens, UniProt O43497); assay: Block of α1G T-type channels, patch clamp in HEK cell lines; format: cell-based
T2 construct: expressed in transfected cells
T2 sequence (O43497 whole entry): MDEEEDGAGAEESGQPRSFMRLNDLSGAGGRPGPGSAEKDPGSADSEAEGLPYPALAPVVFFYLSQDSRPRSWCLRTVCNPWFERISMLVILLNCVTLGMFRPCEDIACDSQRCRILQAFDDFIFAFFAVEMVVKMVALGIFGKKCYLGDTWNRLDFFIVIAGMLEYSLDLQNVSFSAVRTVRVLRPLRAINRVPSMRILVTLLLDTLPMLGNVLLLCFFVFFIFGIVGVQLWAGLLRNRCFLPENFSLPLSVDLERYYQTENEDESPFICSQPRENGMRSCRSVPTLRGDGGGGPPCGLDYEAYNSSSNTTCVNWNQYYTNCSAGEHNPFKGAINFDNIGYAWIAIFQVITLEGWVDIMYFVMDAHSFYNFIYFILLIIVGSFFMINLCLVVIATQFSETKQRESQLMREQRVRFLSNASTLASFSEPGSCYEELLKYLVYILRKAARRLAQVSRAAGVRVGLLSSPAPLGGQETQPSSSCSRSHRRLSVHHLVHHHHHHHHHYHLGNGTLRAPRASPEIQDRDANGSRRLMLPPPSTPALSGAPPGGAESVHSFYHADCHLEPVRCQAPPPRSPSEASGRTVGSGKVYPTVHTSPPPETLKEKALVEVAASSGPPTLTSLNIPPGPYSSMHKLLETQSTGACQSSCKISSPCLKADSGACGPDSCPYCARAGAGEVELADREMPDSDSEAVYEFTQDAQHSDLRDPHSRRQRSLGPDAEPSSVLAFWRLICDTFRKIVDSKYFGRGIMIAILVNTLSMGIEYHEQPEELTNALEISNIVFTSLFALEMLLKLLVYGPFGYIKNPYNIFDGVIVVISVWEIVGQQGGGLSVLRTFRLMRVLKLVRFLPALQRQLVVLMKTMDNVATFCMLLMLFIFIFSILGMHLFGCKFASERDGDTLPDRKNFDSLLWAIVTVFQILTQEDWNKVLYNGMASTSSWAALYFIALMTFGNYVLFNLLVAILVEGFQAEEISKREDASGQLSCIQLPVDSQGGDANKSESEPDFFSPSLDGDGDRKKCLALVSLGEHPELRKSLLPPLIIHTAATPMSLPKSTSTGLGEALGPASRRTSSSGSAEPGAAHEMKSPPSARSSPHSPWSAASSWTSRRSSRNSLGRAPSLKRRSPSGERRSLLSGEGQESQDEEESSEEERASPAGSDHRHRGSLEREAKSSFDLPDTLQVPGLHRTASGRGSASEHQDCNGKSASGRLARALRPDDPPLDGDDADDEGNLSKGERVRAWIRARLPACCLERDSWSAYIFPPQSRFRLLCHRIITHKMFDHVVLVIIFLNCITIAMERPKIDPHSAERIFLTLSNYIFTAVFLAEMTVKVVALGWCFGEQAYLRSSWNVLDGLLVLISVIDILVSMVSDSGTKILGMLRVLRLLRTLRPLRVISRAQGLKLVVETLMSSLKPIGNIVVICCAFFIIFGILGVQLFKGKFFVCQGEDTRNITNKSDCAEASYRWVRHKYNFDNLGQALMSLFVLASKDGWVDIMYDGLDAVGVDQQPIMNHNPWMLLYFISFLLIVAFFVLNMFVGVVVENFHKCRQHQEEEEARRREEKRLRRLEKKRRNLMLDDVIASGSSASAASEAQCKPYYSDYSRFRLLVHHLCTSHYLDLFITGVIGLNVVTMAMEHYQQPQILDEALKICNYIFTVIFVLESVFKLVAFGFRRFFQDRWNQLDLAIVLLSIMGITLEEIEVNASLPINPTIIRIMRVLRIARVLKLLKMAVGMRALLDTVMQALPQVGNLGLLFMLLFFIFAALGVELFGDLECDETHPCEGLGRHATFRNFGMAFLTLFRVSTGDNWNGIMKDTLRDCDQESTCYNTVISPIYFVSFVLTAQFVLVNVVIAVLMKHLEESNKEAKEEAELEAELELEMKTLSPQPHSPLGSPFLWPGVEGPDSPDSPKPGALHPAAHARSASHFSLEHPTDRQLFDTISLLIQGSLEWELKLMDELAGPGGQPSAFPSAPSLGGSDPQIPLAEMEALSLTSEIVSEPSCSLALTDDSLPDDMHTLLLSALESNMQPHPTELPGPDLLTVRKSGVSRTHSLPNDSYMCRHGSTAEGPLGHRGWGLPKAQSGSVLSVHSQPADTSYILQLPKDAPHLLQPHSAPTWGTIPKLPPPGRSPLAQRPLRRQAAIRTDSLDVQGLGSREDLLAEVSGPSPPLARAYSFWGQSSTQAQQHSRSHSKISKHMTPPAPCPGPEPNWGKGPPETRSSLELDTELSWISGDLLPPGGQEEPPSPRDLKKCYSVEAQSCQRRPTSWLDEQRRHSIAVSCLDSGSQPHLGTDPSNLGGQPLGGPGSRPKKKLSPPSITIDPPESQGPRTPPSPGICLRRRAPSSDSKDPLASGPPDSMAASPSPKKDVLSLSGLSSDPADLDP
Experimental: Standard patch-clamp techniques were employed to identify blockers of T-type currents. Briefly, previously described HEK cell lines stably expressing human α1G subunits were used for all the recordings (passage #: 4-20, 37° C., 5% CO2). To obtain T-type currents, plastic dishes containing semi-confluent cells were positioned on the stage of a ZEISS AXIOVERT S100 microscope after replacing the culture medium with external solution (see below). Whole-cell patches were obtained using pipettes (borosilicate glass with filament, O.D.: 1.5 mm, I.D.: 0.86 mm, 10 cm length), fabricated on a SUTTER P-97 puller with resistance values of ˜5 MΩ (see below for internal medium).
Test compounds were dissolved in external solution, 0.1-0.01% DMSO. After ˜10 min rest, they were applied by gravity close to the cell using a WPI microfil tubing. The “non-inactivating” pre-pulse was used to examine the resting block of a compound. The “inactivating” protocol was employed to study voltage-dependent block. However, the initial data were obtained using the non-inactivating protocol.

[3] = 0.067 Hz, read-out: IC50 for N-type Calcium Channel Block (0.067 Hz)
[4] = 0.2 Hz, read-out: IC50 for N-type Calcium Channel Block (0.2 Hz)
[5] = 80 mV, read-out: Block of α1G T-type Channels IC50, 80 mV
[6] = 100 mV, non-inactivating protocol, read-out: Block of α1G T-type Channels IC50, 100 mV

SMILES | IC50 [1, 3] [nM] | IC50 [1, 4] [nM] | IC50 [2, 5] [nM] | IC50 [2, 6] [nM]
CC(C)(C)c1cc(C(=O)N2CCN(C(=O)CCCCC(c3ccc(F)cc3)c3ccc(F)cc3)CC2)cc(C(C)(C)C)c1O [Compound P28] | 379 | 217 | – | –
Fc1ccc(C(CCCCCN2CCN(c3nc4ccccc4s3)CC2)c2ccc(F)cc2)cc1 [Compound P32] | 345 | 245 | – | –
COc1cc(CN2CCN(CCCCCCCCC(c3ccc(F)cc3)c3ccc(F)cc3)CC2)cc(OC)c1OC [Compound P40] | 286 | 214 | – | –
COc1cc(C(=O)N2CCN(C(=O)CCCC(O)C(c3ccc(F)cc3)c3ccc(F)cc3)CC2)cc(OC)c1OC (stereo not shown) [Compound P44, 6,6-bis-(4-fluoro-phenyl)-5-hydroxy-1-[4-(3,4,5-trimethoxy-benzoyl)-piperazin-1-yl]-hexan-1-one] | 280 | 180 | – | –
COc1cc(C(=O)N2CCN(C(=O)CCCCC(O)(c3ccc(F)cc3)c3ccc(F)cc3)CC2)cc(OC)c1OC [Compound P46, 6,6-bis-(4-fluoro-phenyl)-6-hydroxy-1-[4-(3,4,5,-trimethoxy-benzoyl)-piperazin-1-yl]-hexan-1-one] | 430 | 340 | – | –
COc1cc(CN2CCN(C(=O)CCCCC(c3ccc(F)cc3)c3ccc(F)cc3)CC2=O)cc(OC)c1OC [Compound P48, 4-[6,6-bis-(4-fluoro-phenyl)-hexanoyl]-1-(3,4,5,-trimethoxy-benzyl)-piperazin-2-one] | 102 | 56 | – | –
COc1c(C(C)(C)C)cc(CN2CCN(C(=O)CCCCC(c3ccc(F)cc3)c3ccc(F)cc3)CC2=O)cc1C(C)(C)C [Compound P52] | 400 | 370 | – | –
O=C1CN(C(=O)CCCCC(c2ccc(F)cc2)c2ccc(F)cc2)CCN1CCOc1ccc(F)cc1 [Compound P53] | 200 | 980 | – | –
COc1c(C(C)(C)C)cc(C(=O)N2CCN(CCCCCC(c3ccc(F)cc3)c3ccc(F)cc3)C(=O)C2)cc1C(C)(C)C [Compound P54] | 120 | 76 | – | –
COc1c(C(C)(C)C)cc(C(=O)N2CCN(C(=O)CCCCC(c3ccc(F)cc3)c3ccc(F)cc3)CC2=O)cc1C(C)(C)C [Compound P55] | 190 | 150 | – | –
COc1c(C(C)(C)C)cc(CN2CCN(CCCCCC(c3ccc(F)cc3)c3ccc(F)cc3)C(=O)C2)cc1C(C)(C)C [Compound P56] | 78 | 59 | 92 | 95
CC(C)(C)c1cc(C(=O)N2CCN(C(=O)CCCCC(c3ccc(F)cc3)c3ccc(F)cc3)C(=O)C2)cc(C(C)(C)C)c1O [Compound P57] | 600 | 400 | – | –
COc1ccc(OCCN2CCN(C(=O)CCCCC(c3ccc(F)cc3)c3ccc(F)cc3)CC2)cc1OC [Compound P59, 1-{4-[2-(3,4-dimethoxy-phenoxy)ethyl]-piperazin-1-yl}-6,6-bis-(4-fluoro-phenyl)-hexan-1-one] | 810 | 430 | – | –
COc1ccc(OCCN2CCN(CCCCCC(c3ccc(F)cc3)c3ccc(F)cc3)CC2)cc1OC [Compound P60, 1-[6,6-bis-(4-fluoro-phenyl)-hexyl]-4-[2-(3,4,-dimethoxy-phenoxy)-ethyl]-piperazine] | 970 | 790 | – | –
COc1cc(CN2CCN(CCCCCC(c3ccc(F)cc3)c3ccc(F)cc3)[C@@H](C(=O)O)C2)cc(OC)c1OC [Compound P61] | 610 | 520 | – | –
CCOC(=O)C1CN(CCCCCC(c2ccc(F)cc2)c2ccc(F)cc2)CCN1Cc1cc(OC)c(OC)c(OC)c1 (stereo not shown) [Compound P62] | 680 | 410 | – | –
COc1ccc(CN2CCN(CCCCCC(c3ccc(F)cc3)c3ccc(F)cc3)CC2)cc1OC [Compound P63] | 319 | 258 | – | –
COc1ccc(C(=O)N2CCN(C(=O)CCCCC(c3ccc(F)cc3)c3ccc(F)cc3)CC2)cc1OC [Compound P64] | 541 | 390 | – | –
Fc1ccc(C(CCCCCN2CCN(CCOc3ccc4c(c3)OCO4)CC2)c2ccc(F)cc2)cc1 [Compound P65] | 705 | 517 | – | –

SMILES | IC50 [1, 3] [nM] | IC50 [1, 4] [nM] | IC50 [2, 5] [nM] | IC50 [2, 6] [nM]
COc1cc(OCCN2CCN(CCCCCC(c3ccc(F)cc3)c3ccc(F)cc3)CC2)cc(OC)c1OC [Compound P66] | 800 | 550 | – | –
Cc1cc(OC[C@@H](O)CN2CCN(CCCCCC(c3ccc(F)cc3)c3ccc(F)cc3)CC2)c(C)c(C)c1N [Compound P67] | 1050 | 928 | – | –
Cc1cc(OC[C@@H](O)CN2CCN(C(=O)CCCCC(c3ccc(F)cc3)c3ccc(F)cc3)CC2)c(C)c(C)c1N [Compound P68] | 1580 | 975 | – | –
O=C(CCCCC(c1ccc(F)cc1)c1ccc(F)cc1)N1CCN(c2nc3ccccc3s2)CC1 [Compound P69] | 502 | 410 | – | –
Fc1ccc(C(CCCCCN2CCN(Cc3cc(C(F)(F)F)cc(C(F)(F)F)c3)CC2)c2ccc(F)cc2)cc1 [Compound P70] | 1040 | 1060 | – | –
O=C(CCCCC(c1ccc(F)cc1)c1ccc(F)cc1)N1CCN(C(=O)c2cc(C(F)(F)F)cc(C(F)(F)F)c2)CC1 [Compound P71] | 870 | 510 | – | –
CC(C)(C)c1ccc(C(=O)N2CCN(C(=O)CCCCC(c3ccc(F)cc3)c3ccc(F)cc3)CC2)cc1 [Compound P72] | 808 | 630 | – | –
Fc1ccc(C(CCCCCN2CCN(Cc3ccc(Br)cc3)CC2)c2ccc(F)cc2)cc1 [Compound P73] | 439 | 377 | – | –
Fc1ccc(C(CCCCCN2CCN(CCSc3nc4ccccc4s3)CC2)c2ccc(F)cc2)cc1 [Compound P74] | 660 | 430 | – | –
COc1cc(C(=O)N2CCN(C(=O)CCCCC(c3ccc(F)cc3)c3ccc(F)cc3)CC2)cc(OC)c1O [Compound P75] | 839 | 603 | – | –
Oc1c(Br)cc(CN2CCN(CCCCCC(c3ccc(F)cc3)c3ccc(F)cc3)CC2)cc1Br [Compound P76] | 680 | 514 | – | –
Fc1ccc(C(CCCCCN2CCN(Cc3ccc(OC(F)(F)F)cc3)CC2)c2ccc(F)cc2)cc1 [Compound P77] | 280 | 220 | – | –
COc1cc(CNCCN2CCN(CCCCCC(c3ccc(F)cc3)c3ccc(F)cc3)CC2)cc(OC)c1OC [Compound P78] | 64 | 30 | – | –
O=C(CCCCC(c1ccc(F)cc1)c1ccc(F)cc1)N1CCN(CCOc2ccc(F)cc2)CC1 [Compound P79] | 579 | 423 | – | –
O=C(CCCCC(c1ccc(F)cc1)c1ccc(F)cc1)N1CCN(CCNc2ccccc2)CC1 [Compound P80] | 960 | 660 | – | –
O=C(NCC(=O)N1CCN(CCCCCC(c2ccc(F)cc2)c2ccc(F)cc2)CC1)c1ccc(Cl)cc1 [Compound P83] | 386 | 192 | 59 | 173
Cc1ccc(C(=O)NCC(=O)N2CCN(CCCCCC(c3ccc(F)cc3)c3ccc(F)cc3)CC2)cc1 [Compound P84] | 511 | 295 | 149 | 370
COc1cc(CN2CCN(CCCCCC(c3ccc(F)cc3)c3ccc(F)cc3)CC2)cc(OC)c1O [Compound P101] | 277 | 203 | – | –
COc1cc(CN2CCN(C(=O)CCCCCCCC(c3ccccc3)c3ccccc3)CC2)cc(OC)c1OC [Compound P102] | 419 | 292 | – | –
